Laboratory results taken from US9062078B2, “Substituted 7-azabicyles and their use as orexin receptor modulators” (priority 2013, dated 2015).
Like-named read-outs stand apart in the source and are kept apart here.

Assays:
human orexin 2 receptor = human orexin 2 receptor (Homo sapiens (Human), UniProt O43614); assay: Human orexin 2 receptor radioligand binding (competitive, [3H]-EMPA, HEK293 cell preparations)
human orexin 1 receptor = human orexin 1 receptor (Homo sapiens (Human), UniProt O43613); assay: Human orexin 1 receptor radioligand binding (competitive, [3H]-SB674042, CHO cell preparations)
Chain of human orexin 1 receptor (O43613 whole entry): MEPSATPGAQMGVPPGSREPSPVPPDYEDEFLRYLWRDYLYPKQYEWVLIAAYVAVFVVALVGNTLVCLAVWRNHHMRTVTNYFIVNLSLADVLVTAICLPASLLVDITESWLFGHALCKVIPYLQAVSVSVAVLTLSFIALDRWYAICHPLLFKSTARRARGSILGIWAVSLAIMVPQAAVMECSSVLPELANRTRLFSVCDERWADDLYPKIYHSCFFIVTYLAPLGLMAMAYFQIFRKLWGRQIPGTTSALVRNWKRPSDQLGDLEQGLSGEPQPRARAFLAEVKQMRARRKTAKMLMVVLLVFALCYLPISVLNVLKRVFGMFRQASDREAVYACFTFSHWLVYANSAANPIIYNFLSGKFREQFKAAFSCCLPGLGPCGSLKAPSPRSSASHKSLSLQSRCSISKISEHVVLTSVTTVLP

rat orexin 1 receptor = rat orexin 1 receptor (Rattus norvegicus, UniProt P56718); assay: Rat orexin 1 receptor radioligand binding (competitive, [3H]-SB674042, HEK293 cell preparations)
[1] = human orexin 2 receptor, [3H]-EMPA competition binding, read-out: hOX2 Ki (nm)
[2] = human orexin 1 receptor, [3H]-SB674042 competition binding, read-out: hOX1 Ki (nm)
[3] = rat orexin 1 receptor, [3H]-SB674042 competition binding, read-out: rOX1 Ki (nm)

Chain of human orexin 2 receptor (O43614 whole entry): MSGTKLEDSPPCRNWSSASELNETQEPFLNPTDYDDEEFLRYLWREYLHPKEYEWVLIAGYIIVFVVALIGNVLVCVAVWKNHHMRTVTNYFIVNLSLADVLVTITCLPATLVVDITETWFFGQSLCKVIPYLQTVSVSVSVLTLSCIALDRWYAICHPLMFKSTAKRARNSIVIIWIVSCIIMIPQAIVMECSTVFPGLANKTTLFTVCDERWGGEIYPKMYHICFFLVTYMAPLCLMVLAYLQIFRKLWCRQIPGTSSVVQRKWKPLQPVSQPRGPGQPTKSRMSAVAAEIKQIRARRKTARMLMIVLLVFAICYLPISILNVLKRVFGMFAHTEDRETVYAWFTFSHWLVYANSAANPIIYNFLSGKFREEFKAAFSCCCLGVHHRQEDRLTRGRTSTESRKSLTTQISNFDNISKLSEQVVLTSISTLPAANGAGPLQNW

SMILES | Ki (human orexin 2 receptor; [1]) [nM] | Ki (human orexin 1 receptor; [2]) [nM] | Ki (rat orexin 1 receptor; [3]) [nM] | Ki (human orexin 1 receptor; hOX1 Ki (nm)) [nM] | Ki (rat orexin 1 receptor; rOX1 Ki (nm)) [nM] | Ki (human orexin 2 receptor; hOX2 Ki (nm)) [nM] | Ki (human orexin 1 receptor; read-out: hOX1 Ki (nm)) [nM] | Ki (rat orexin 1 receptor; read-out: rOX1 Ki (nm)) [nM]
Cc1cccc(-n2nccn2)c1C(=O)N1C2CCC1C(COc1ccc(F)cn1)C2 (racemic) [Example 110, (±)-(2-(((5-fluoropyridin-2-yl)oxy)methyl)-7-azabicyclo[2.2.1]heptan-7-yl)(2-methyl-6-(2H-1,2,3-triazol-2-yl)phenyl)methanone] | 94 | 67 | 54 |  |  |  |  | 
O=C(c1cc(CO)ccc1-n1nccn1)N1C2CCC1C(COc1ccc(F)cn1)C2 (racemic) [Example 126, (±)-(2-(((5-fluoropyridin-2-yl)oxy)methyl)-7-azabicyclo[2.2.1]heptan-7-yl)(5-(hydroxymethyl)-2-(2H-1,2,3-triazol-2-yl)phenyl)methanone] | 231 | 27 | 23 |  |  |  |  | 
Cc1ccc(N2CCCC2)c(C(=O)N2C3CCC2C(COc2ccccn2)C3)n1 (racemic) [Example 97, (±)-(6-methyl-3-(pyrrolidin-1-yl)pyridin-2-yl)(2-((pyridin-2-yloxy)methyl)-7-azabicyclo[2.2.1]heptan-7-yl)methanone] | 840 | 32 | 35 |  |  |  |  | 
CCOc1ccc2cccnc2c1C(=O)N1C2CCC1C(COc1ccccn1)C2 (racemic) [Example 75, (±)-(7-ethoxyquinolin-8-yl)(2-((pyridin-2-yloxy)methyl)-7-azabicyclo[2.2.1]heptan-7-yl)methanone] | 220 | 7 | 18 |  |  |  |  | 
Cc1ccc(-n2nccn2)c(C(=O)N2C3CCC2C(COc2ccc(Br)cn2)C3)n1 (racemic) [Example 49, (±)-(2-(((5-bromopyridin-2-yl)oxy)methyl)-7-azabicyclo[2.2.1]heptan-7-yl)(6-methyl-3-(2H-1,2,3-triazol-2-yl)pyridin-2-yl)methanone] | 192 |  |  | 69 | 81 |  |  | 
Cc1ccc(-c2ncccn2)c(C(=O)N2[C@@H]3CC[C@H]2[C@H](COc2ccccn2)C3)n1 (single isomer, unassigned) [Example 3A, (6-methyl-3-(pyrimidin-2-yl)pyridin-2-yl)((1S*,2R*,4R*)-2-((pyridin-2-yloxy)methyl)-7-azabicyclo[2.2.1]heptan-7-yl)methanone] |  |  |  | 19 | 24 | 268 |  | 
O=C(c1cccc(F)c1-n1nccn1)N1C2CCC1C(COc1ccc(F)cn1)C2 (racemic) [Example 117, (±)-(3-fluoro-2-(2H-1,2,3-triazol-2-yl)phenyl)(2-(((5-fluoropyridin-2-yl)oxy)methyl)-7-azabicyclo[2.2.1]heptan-7-yl)methanone] | 245 |  |  | 82 | 62 |  |  | 
Cc1cccc(C(=O)N2[C@@H]3CC[C@H]2[C@H](Nc2cnc(C(F)(F)F)cn2)C3)c1-c1cccnn1 [Example 263, (3-methyl-2-(pyridazin-3-yl)phenyl)((1S,2R,4R)-2-((5-(trifluoromethyl)pyrazin-2-yl)amino)-7-azabicyclo[2.2.1]heptan-7-yl)methanone] | 1100 |  |  |  |  |  | 41 | 44
